Patent US20240109898A1, “SUBSTITUTED PYRAZOLO[1,5-A]PYRIMIDINE-7-AMINE DERIVATIVES, COMPOSITIONS AND PHARMACEUTICAL USES THEREOF” (SHANGHAI HAIYAN PHARMACEUTICAL TECHNOLOGY CO., LTD., priority 2021, published 2024)

Columns and labels:
Assay type in all cases: biochemical
CDK9/CycT = CDK9/CycT (Homo sapiens (Human), UniProt P50750); test: LANCE Ultra kinase activity inhibition assay, CDK9/CycT; conditions: ATP 10 μM, highest compound concentration 1 μM
Experimental: (§1) In the following LANCE Ultra test methods, kinase reagents were purchased from Carna Bioscience, reaction substrates and detection reagents were purchased from PerkinElmer, and the remaining reagents were purchased from Thermo scientific.
The inhibiting effects on the kinase activity of CDK1/CycB (Carna bioscience, #04-102), CDK2/CycA (Carna bioscience, #04-103) and CDK9/CycT (Carna bioscience, #04-110) were determined by using LANCE Ultra method.
The kinase activity test was performed using a system (10 μL) containing the following components: substrate diluent prepared by mixing CDK kinase diluent, Ulight-Myelic basic protein (Perkin Elmer, #TRF-0109, hereinafter referred to as U-MBP) and ATP (Thermo scientific, #PV3227); and the compounds (i.e., analyte) prepared in the examples of the present disclosure. The assay for each kinase includes three test groups, i.e., a background group (Blank), a non-inhibition group (PC), and compound testing group (Test). The components included in each test group were as follows:
(§2) Working concentrations of the respective components of the Test groups in different kinase reactions were as follows.
(§3) Compounds: 10 mM of the compound to be tested was dissolved at room temperature and diluted with DMSO to gradient concentrations, followed by diluting with deionized water to prepare a 4× working solution of the compound, and the content of DMSO was 2%. The highest concentration of compound used in the CDK1 and CDK2 assays was 10 μM, and that in CDK9 assay was 1 μM.
1.33×reaction buffer: the components include 26.7 mM of MOPS, 6.67 mM of MgCl2, and 0.0133% Tween-20, which were stored in a 4° C. refrigerator and protected from light after preparation. Freshly prepared DTT was added to a final concentration of 5.33 mM before use.
(§4) The working concentration of DMSO in the reaction was 0.5%.
(§5) The above-mentioned components, after being mixed, were placed on a shaker and incubated at room temperature in the dark for 1 h. 10 μL of test solution was then added to all test groups (including Blank, PC and Test groups).
10 μL of test solution contains the following components: 16 mM of EDTA (Thermo scientific, #15575), 1 nM of phosphorylated U-MBP protein antibody (Perkin Elmer, #TRF-0201), and 1× detection damping fluid (Perkin Elmer, #CR97-100).
After the test solution was added, the solution was placed on a shaker and continually incubated at room temperature for 1 h in the dark. At the end of incubation, Victor X5 fluorescence microplate reader of Perkin Elmer was used to read the signal; the wavelength of excitation light was 320 nm, and the wavelengths of emission light were 615 nm and 665 nm. The inhibition rate was calculated as below.
1. For all groups, a value of 665 nm/615 nm (hereinafter referred to as Ratio) was calculated, and an inhibition rate was calculated based on the Ratio of each group;
(§6) 2. Inhibition rate=(PCRatio-TestRatio)/(PCRatio-BlankRatio)*100%; and
(§7) 3. XLFIT 5.0 software (IDBS, UK) was used to fit a graph by using the logarithmic value of the compound concentration as the X-axis and the inhibition rater as the Y-axis, and a four-parameter model was used to calculate the half inhibitory concentration IC50 of the compound.

CDK1/CycB = CDK1/CycB (Homo sapiens (Human), UniProt P06493); test: LANCE Ultra kinase activity inhibition assay, CDK1/CycB; conditions: ATP 4 μM, highest compound concentration 10 μM
Sequence of CDK1/CycB (P06493 whole entry): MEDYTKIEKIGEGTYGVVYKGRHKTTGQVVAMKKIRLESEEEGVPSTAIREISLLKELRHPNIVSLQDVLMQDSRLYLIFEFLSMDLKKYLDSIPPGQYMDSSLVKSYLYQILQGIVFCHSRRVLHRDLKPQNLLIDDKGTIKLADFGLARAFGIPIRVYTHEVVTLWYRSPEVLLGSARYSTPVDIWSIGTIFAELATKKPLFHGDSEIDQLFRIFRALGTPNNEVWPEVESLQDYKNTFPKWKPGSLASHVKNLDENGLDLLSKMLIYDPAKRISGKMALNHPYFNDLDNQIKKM
Sequence of CDK1/CycB (P14635 whole entry partner): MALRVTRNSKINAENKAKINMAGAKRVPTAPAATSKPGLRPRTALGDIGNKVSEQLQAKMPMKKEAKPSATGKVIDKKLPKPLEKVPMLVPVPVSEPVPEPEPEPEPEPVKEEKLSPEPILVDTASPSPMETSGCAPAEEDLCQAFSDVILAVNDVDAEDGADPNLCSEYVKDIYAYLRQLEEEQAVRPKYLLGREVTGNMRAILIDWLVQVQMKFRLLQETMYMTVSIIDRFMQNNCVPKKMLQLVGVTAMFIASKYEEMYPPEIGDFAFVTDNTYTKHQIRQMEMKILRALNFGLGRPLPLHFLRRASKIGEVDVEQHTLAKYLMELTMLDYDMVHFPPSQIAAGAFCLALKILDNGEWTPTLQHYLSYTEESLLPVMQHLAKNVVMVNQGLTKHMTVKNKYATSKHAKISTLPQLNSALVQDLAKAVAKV
From the text: as §1
(§8) The assay for each kinase includes three test groups, i.e., a background group (Blank), a non-inhibition group (PC), and compound testing group (Test). The components included in each test group were as follows:
as §2, §3, §4, §5
(§9) After the test solution was added, the solution was placed on a shaker and continually incubated at room temperature for 1 h in the dark. […] The inhibition rate was calculated as below.
as §6, §7

CDK2/CycA = CDK2/CycA (Homo sapiens (Human), UniProt P24941); test: LANCE Ultra kinase activity inhibition assay, CDK2/CycA; conditions: ATP 10 μM, highest compound concentration 10 μM
From the text: as §1, §8, §2, §3, §4, §5, §9, §6, §7

Sequence of CDK9/CycT (P50750 whole entry): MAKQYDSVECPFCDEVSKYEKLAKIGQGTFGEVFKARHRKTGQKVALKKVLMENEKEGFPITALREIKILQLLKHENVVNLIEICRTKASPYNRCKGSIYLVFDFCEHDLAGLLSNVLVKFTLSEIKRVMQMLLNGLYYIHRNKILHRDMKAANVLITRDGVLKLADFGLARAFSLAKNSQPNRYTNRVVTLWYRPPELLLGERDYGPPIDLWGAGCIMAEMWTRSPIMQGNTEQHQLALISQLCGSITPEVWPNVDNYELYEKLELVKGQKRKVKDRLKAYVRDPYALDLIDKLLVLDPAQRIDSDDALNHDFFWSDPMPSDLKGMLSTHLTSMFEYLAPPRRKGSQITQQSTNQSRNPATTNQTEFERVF
Sequence of CDK9/CycT (O60563 whole entry partner): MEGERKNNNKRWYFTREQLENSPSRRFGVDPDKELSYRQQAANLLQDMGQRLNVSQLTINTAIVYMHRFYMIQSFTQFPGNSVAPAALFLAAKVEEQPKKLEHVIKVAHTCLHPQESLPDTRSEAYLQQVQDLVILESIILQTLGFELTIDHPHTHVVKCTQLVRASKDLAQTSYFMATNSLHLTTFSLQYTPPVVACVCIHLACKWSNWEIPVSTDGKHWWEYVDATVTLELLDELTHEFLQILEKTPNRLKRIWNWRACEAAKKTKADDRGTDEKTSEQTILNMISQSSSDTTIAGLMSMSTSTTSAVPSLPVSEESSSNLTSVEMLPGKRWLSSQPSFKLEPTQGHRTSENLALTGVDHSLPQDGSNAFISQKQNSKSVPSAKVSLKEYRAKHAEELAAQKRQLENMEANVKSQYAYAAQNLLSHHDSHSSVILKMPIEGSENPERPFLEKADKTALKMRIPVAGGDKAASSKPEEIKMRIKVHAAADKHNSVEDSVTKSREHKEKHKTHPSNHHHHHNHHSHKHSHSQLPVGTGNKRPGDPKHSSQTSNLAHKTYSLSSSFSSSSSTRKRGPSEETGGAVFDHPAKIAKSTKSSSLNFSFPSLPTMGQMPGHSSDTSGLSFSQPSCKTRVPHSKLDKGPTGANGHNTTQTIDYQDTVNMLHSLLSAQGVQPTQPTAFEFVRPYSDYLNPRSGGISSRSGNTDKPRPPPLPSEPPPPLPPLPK

| Structure (SMILES) | IC50 (CDK9/CycT) [µM] | IC50 (CDK1/CycB) [µM] | IC50 (CDK2/CycA) [µM] |
| --- | --- | --- | --- |
| C[C@@H](c1cc(N[C@H]2CC[C@H](N)C2)n2nccc2n1)C1CC1 [Compound Z-5-1] | 0.023 |  |  |
| N[C@H]1CC[C@H](Nc2cc([C@@H](F)C3CCC3)nc3ccnn23)C1 [Compound Z-41-P1] | 0.047 | 4.59 | > 10 |
| CC(C)(c1cc(N[C@H]2CC[C@H](N)C2)n2nccc2n1)C1CC1 [Compound Z-12] | 0.02 | 2.72 | > 10 |
| C=CCC(C)(C)c1cc(N[C@H]2CC[C@H](N)C2)n2nccc2n1 [Compound Z-57] | 0.058 | 4.97 | > 10 |
| Cc1cnn2c(N[C@H]3CC[C@H](N)C3)cc(C(C)C3(C)CC3)nc12 (stereo partly drawn) [Compound Z-26] | 0.026 | 3.92 | 7.06 |
| N[C@H]1CC[C@H](Nc2cc(CC3CC3)nc3ccnn23)C1 [Compound Z-3] | 0.073 | > 10 | > 10 |
| CC(c1cc(N[C@H]2CC[C@H](N)CC2)n2nccc2n1)C1CC1 (stereo partly drawn) [Compound Z-21] | 0.029 | 4.37 | 3.29 |
| Cc1cnn2c(N[C@H]3CC[C@H](N)C3)cc([C@@H](C)C3(C)CC3)nc12 [Compound Z-26-P2] | 0.078 | > 10 | > 10 |
| Cc1cnn2c(N[C@H]3CC[C@H](N)C3)cc(C(C)(C)C3CCC3)nc12 [Compound Z-40] | 0.048 | > 10 | > 10 |
| N[C@H]1CC[C@H](Nc2cc(C(F)(F)C3CC3)nc3ccnn23)C1 [Compound Z-37] | 0.027 | 7.18 | > 10 |
| CC(c1cc(N[C@H]2CC[C@H](NC(=N)N)C2)n2ncc(F)c2n1)C1CC1 (stereo partly drawn) [Compound Z-71] | 0.028 | 1.88 | 4.53 |
| N[C@H]1CC[C@H](Nc2cc(C(F)C3CCCC3)nc3ccnn23)C1 (stereo partly drawn) [Compound Z-42] | 0.022 | 3.3 | 8.5 |
| Cc1cnn2c(N[C@H]3CC[C@H](N)C3)cc([C@H](C)C3CCC3)nc12 (single isomer, unassigned) [Compound Z-38-P1] | 0.04 |  |  |
| C[C@@H](c1cc(N[C@H]2CC[C@H](N)C2)n2nccc2n1)C1CCC1 [Compound Z-11-P2] | 0.03 |  |  |
| CCC(c1cc(N[C@H]2CC[C@H](NC(=N)N)C2)n2nccc2n1)C1CC1 (stereo partly drawn) [Compound Z-67] | 0.044 | 4.59 | > 10 |
| C[C@@H](c1cc(N[C@H]2C[C@H](N)C2)n2nccc2n1)C1CC1 [Compound Z-62-P2] | 0.024 | 1.82 | > 10 |
| Cc1cnn2c(N[C@H]3CC[C@H](N)C3)cc([C@H](C)C3CC3)nc12 [Compound Z-32-P1] | 0.099 | > 10 | > 10 |
| CC(c1cc(N[C@H]2C[C@@H](N)C2)n2nccc2n1)C1CC1 (stereo partly drawn) [Compound Z-74] | 0.417 | > 10 | > 10 |
| Cc1cnn2c(N[C@H]3CC[C@H](N)C3)cc(CC3(C)CC3)nc12 [Compound Z-25] | 0.021 | 9.87 | 8.71 |
| C[C@@H](c1cc(N[C@H]2CC[C@H](N)C2)n2nccc2n1)C1(C)CC1 [Compound Z-27-P1] | 0.047 | 1.21 | > 10 |
| N[C@H]1CC[C@H](Nc2cc(C(C3CC3)C3CC3)nc3c(C4CC4)cnn23)C1 [Compound Z-14] | 0.042 | 1.61 | 2.55 |
| CC(c1cc(NC2CCN(N)C2)n2ncc(Cl)c2n1)C1CC1 (stereo not drawn) [Compound Z-48] | 0.068 | 1.47 | 2.22 |
| CC(c1cc(NC2CCNC2)n2ncc(F)c2n1)C1CC1 (stereo not drawn) [Compound Z-31] | 0.104 | 3.21 | 6.39 |
| N[C@H]1CC[C@H](Nc2cc(CC3CCC3)nc3ccnn23)C1 [Compound Z-50] | 0.064 | 6.57 | > 10 |
| Cc1cnn2c(N[C@H]3CC[C@H](N)C3)cc(CC3CC3)nc12 [Compound Z-52] | 0.032 | 7.15 | 6.15 |
| CC(C)(c1cc(N[C@H]2CC[C@H](N)C2)n2nccc2n1)C1CCC1 [Compound Z-39] | 0.034 | 2.48 | > 10 |
| CCc1cnn2c(N[C@H]3CC[C@H](N)C3)cc(C(C)C3CC3)nc12 (stereo partly drawn) [Compound Z-20] | 0.034 | 2.42 | 4.39 |
| CC(c1cc(N[C@H]2CC[C@H](N)C2)n2nccc2n1)C1CCC1 (stereo partly drawn) [Compound Z-11] | 0.022 |  |  |
| NN1CCC(Nc2cc(C(C3CC3)C3CC3)nc3ccnn23)C1 (stereo not drawn) [Compound Z-59] |  | 8.82 | > 10 |

The remaining compounds from weak to strong by IC50 (CDK9/CycT), led by results:

| IC50 (CDK9/CycT) [µM] | IC50 (CDK1/CycB) [µM] | IC50 (CDK2/CycA) [µM] | Structure (SMILES) |
| --- | --- | --- | --- |
| 0.019 | 1.24 | 2.3 | CC(c1cc(N[C@H]2CC[C@H](NC(=N)N)C2)n2ncc(Cl)c2n1)C1CC1 (stereo partly drawn) [Compound Z-65] |
| 0.018 | 2.57 | 3.68 | CC(=N)N[C@H]1CC[C@H](Nc2cc(C(C3CC3)C3CC3)nc3c(F)cnn23)C1 [Compound Z-73] |
| 0.018 | 0.995 | 0.332 | CC(=N)N[C@H]1CC[C@H](Nc2cc(C(C3CC3)C3CC3)nc3c(Cl)cnn23)C1 [Compound Z-66] |
| 0.018 | 1.34 | 7.62 | CC(c1cc(N[C@H]2CC[C@H](N)C2)n2nccc2n1)C1CCCC1 (stereo partly drawn) [Compound Z-13] |
| 0.017 |  |  | CC(c1cc(N[C@H]2CC[C@H](N)C2)n2nccc2n1)C1CC1 (stereo partly drawn) [Compound Z-5] |
| 0.017 |  |  | Cc1cnn2c(N[C@H]3CC[C@H](N)C3)cc(C(C)C3CCC3)nc12 (stereo partly drawn) [Compound Z-38] |
| 0.016 |  |  | Cc1cnn2c(N[C@H]3CC[C@H](N)C3)cc([C@H](C)C3CCC3)nc12 (single isomer, unassigned) [Compound Z-38-P2] |
| 0.015 | 1.94 | 1.91 | N[C@H]1CC[C@H](Nc2cc(CC3CC3)nc3c(Cl)cnn23)C1 [Compound Z-55] |
| 0.014 | 0.716 | 0.828 | N#Cc1cnn2c(N[C@H]3CC[C@H](N)C3)cc(C(C3CC3)C3CC3)nc12 [Compound Z-4] |
| 0.013 | 1.77 | 8.64 | CC(c1cc(N[C@H]2CC[C@H](N)C2)n2nccc2n1)(C1CC1)C1CC1 [Compound Z-22] |
| 0.012 | 2.39 | > 10 | CC[C@H](c1cc(N[C@H]2CC[C@H](N)C2)n2nccc2n1)C1CC1 [Compound Z-28-P2] |
| 0.011 | 1.89 | 2.06 | CC1(Cc2cc(N[C@H]3CC[C@H](N)C3)n3ncc(Cl)c3n2)CC1 [Compound Z-29] |
| 0.011 | 1.86 | 3.07 | CCC(c1cc(N[C@H]2CC[C@H](N)C2)n2nccc2n1)C1CC1 (stereo partly drawn) [Compound Z-28] |
| 0.009 | 0.772 | 2.82 | CC(c1cc(N[C@H]2CC[C@H](N)C2)n2nccc2n1)C1(C)CC1 (stereo partly drawn) [Compound Z-27] |
| 0.008 | 2.08 | 2.78 | C[C@H](c1cc(N[C@H]2CC[C@H](N)C2)n2nccc2n1)C1(C)CC1 [Compound Z-27-P2] |
| 0.006 | 0.924 | 2.11 | CC(C)(c1cc(N[C@H]2CC[C@H](N)C2)n2ncc(F)c2n1)C1CC1 [Compound Z-36] |
| 0.006 | 2.05 | 4.51 | CC[C@@H](c1cc(N[C@H]2CC[C@H](N)C2)n2nccc2n1)C1CC1 [Compound Z-28-P1] |
